{"source": "ChEMBL document CHEMBL1201862", "about": "“PubChem BioAssay data set” (2004)", "key": {"[1]": {"assay": "viability of uninfected HEp-2 cells – cell-based, HTS, cytotoxicity control for RSV inhibitor project, dose response (AID 2410)", "format": "functional", "conditions": "human respiratory syncytial virus"}, "[2]": {"target": "T1, Corticotropin-releasing factor receptor 2/Corticotropin-releasing factor-binding protein (Homo sapiens, UniProt P24387+Q13324)", "T1 sequence (Q13324 whole entry)": "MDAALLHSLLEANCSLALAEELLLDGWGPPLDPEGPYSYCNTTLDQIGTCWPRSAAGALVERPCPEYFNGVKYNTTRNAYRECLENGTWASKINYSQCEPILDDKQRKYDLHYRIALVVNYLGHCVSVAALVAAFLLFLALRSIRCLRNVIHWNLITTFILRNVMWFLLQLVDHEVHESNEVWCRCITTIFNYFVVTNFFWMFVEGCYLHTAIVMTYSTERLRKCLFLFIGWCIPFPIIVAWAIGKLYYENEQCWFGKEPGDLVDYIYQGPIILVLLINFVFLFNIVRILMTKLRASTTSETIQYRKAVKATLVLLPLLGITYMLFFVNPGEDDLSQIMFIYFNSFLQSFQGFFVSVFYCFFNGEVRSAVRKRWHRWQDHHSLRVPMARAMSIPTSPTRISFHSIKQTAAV", "T1 sequence (P24387 whole entry)": "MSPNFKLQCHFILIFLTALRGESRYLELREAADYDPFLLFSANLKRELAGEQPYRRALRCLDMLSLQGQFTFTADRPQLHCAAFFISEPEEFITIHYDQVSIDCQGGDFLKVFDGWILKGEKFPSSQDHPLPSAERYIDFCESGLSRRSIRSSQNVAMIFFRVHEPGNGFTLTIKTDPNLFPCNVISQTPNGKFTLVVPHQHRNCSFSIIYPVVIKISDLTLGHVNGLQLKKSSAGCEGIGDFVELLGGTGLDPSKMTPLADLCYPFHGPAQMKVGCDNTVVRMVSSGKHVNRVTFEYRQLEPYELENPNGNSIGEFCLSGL", "assay": "activators of CRF receptor 2 with binding protein – uHTS hits, confirmation (AID 602473)", "format": "functional", "conditions": "read-out: EC50_Mean"}, "[3]": {"assay": "Luminescence Cell-Based Dose Response HTS to Identify Activators of Luciferase Translation or Activity in H4 […] Cells. [Related pubchem assays: 1829 (Project Summary), 1814 (Primary HTS)]", "format": "functional"}, "[4]": {"system": "H4", "assay": "Luminescence Cell-Based Dose Response HTS to Identify Activators of 5'UTR Stem-Loop Driven Prion Protein mRNA Translation in H4 Neuroglioblastoma Cells. [Related pubchem assays: 1829 (Project Summary), 1814 (Primary HTS)]", "format": "functional", "conditions": "Homo sapiens"}, "[5]": {"assay": "microbe, parasite or virus in culture", "format": "functional", "conditions": "Mycobacterium tuberculosis"}, "[6]": {"assay": "viability of PTEN-deleted HCT116 cells – cell-based, HCT116 PTEN knockout, dose response (AID 1047);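 note: HCT116 colon tumor cells with PTEN knocked out; cells exposed to compound for 60 hours before readout; potency for loss of cell viability measured by luminescence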", "format": "functional"}, "[7]": {"system": "SN12K1", "assay": "cells", "format": "functional", "conditions": "Homo sapiens"}, "[8]": {"system": "P388", "assay": "cells", "format": "functional", "conditions": "Mus musculus"}, "[9]": {"assay": "alpha-synuclein stem-loop luciferase translation blockers – H4 neuroglioma cells, luminescence, confirmation (AID 1988)", "format": "functional, cell-based"}, "[10]": {"system": "INS1", "assay": "INS-1E survival protection against cytokine death – cell-based, luminescence, retest, dose response (AID 449756);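 note: cell death triggered by IL-1 beta plus TNF-alpha plus IFN-gamma mixture; protective hits raise ATP signal compared with cytokine alone wells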", "format": "functional", "conditions": "Rattus norvegicus"}, "[11]": {"assay": "luciferase reporter signal suppression in cells – H4 neuroglioma cells, luminescence, dose response (AID 1990)", "format": "functional, cell-based"}, "[12]": {"assay": "Trypanosoma cruzi growth suppression in host cells – NIH3T3 host cells, beta-gal luminescence, confirmation (AID 2044);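 note: luminescent beta-galactosidase reporter signal from transgenic T. cruzi replicating inside host cells; inhibitors lower the luminescence signal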", "format": "functional, cell-based"}, "[13]": {"assay": "loss of viability in HepG2 cells – cell-based, CellTiter-Glo, cherry-picked, cytotoxicity control for Shn3 inhibitor project, dose response (AID 624134)", "format": "functional"}, "[14]": {"assay": "NIH3T3 cell viability loss – ATP luminescence, mouse fibroblasts, counter-screen, dose response (AID 2010);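 note: cells exposed to compound for about 90 hours before reading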", "format": "functional, cell-based"}, "[15]": {"assay": "non-specific 3'UTR reporter inhibition in Clone20-Shn3RL – cell-based, Renilla luciferase, cherry-picked, counter-screen for Shn3 inhibitor project, dose response (AID 624133)", "format": "functional"}, "[16]": {"assay": "Luminescence Cell-Based Dose Response HTS to Identify Inhibitors of 5'UTR Stem-Loop Driven Prion Protein mRNA Translation in H4 Neuroglioblastoma Cells. [Related pubchem assays: 1827 (Project Summary), 1813 (Primary HTS)]", "format": "functional"}, "[17]": {"assay": "reduction of Shn3 3'UTR-driven luciferase in osteoblasts – cell-based, Clone20 osteoblasts, firefly luciferase, cherry-picked, dose response (AID 624132)", "format": "functional"}}, "note": "Activity calls are given as the source filed them."}
{"smiles": "CC(=O)Nc1cccc(-c2cc(-c3c(Cl)cccc3Cl)no2)c1", "values": [{"measurement": "CC50", "setting": "[1]", "value": "18.3 µM (active)"}]}
{"smiles": "CC(C)(C)N1CC2([N+](=O)[O-])CN(C(C)(C)C)CC([N+](=O)[O-])(C1)C2", "values": [{"measurement": "EC50", "setting": "[2]", "value": "4.6 µM (active)"}]}
{"smiles": "O=C(Nc1ccccc1)c1cc2n(n1)C(C(F)(F)F)CC(C1CC1)N2", "note": "(stereo not given)", "values": [{"measurement": "EC50", "setting": "[3]", "value": "5.46 µM (active)"}, {"measurement": "EC50", "setting": "[4]", "value": "> 120 µM (not active)"}]}
{"smiles": "CCOc1ccc(S(=O)(=O)N2CCN(C(=O)c3cc4c(s3)CCCC4)CC2)cc1", "values": [{"measurement": "CC50", "setting": "[1]", "value": "28.8 µM (active)"}, {"measurement": "CC50", "setting": "[5]", "value": "> 40 µM (active)"}]}
{"smiles": "Cc1nn(Cc2ccccc2Cl)c2sc(C(=O)NCCCn3ccnc3)cc12", "values": [{"measurement": "CC50", "setting": "[5]", "value": "> 40 µM (active)"}]}
{"smiles": "S=C(NCCc1ccc(Cl)cc1)Nc1ccc(Cl)cc1Cl", "values": [{"measurement": "EC50", "setting": "[6]", "value": "30.9 µM (active)"}]}
{"smiles": "CC(=O)CSc1ncnc2c1cnn2-c1ccccc1", "values": [{"measurement": "CC50", "setting": "[1]", "value": "42.5 µM (active)"}]}
{"smiles": "Cc1cccnc1N=C(S)NCCc1ccccc1", "values": [{"measurement": "EC50", "setting": "[3]", "value": "21.7 µM (active)"}, {"measurement": "EC50", "setting": "[4]", "value": "12.9 µM (inconclusive)"}]}
{"smiles": "Nc1ncc(CN2CCCC2)c(-c2ccccc2O)n1", "values": [{"measurement": "GI50", "setting": "[7]", "value": "> 100 µM (inactive)"}, {"measurement": "GI50", "setting": "[8]", "value": "> 100 µM (inactive)"}]}
{"smiles": "CO[C@H]1C[C@@H]2CC[C@@H](C)[C@@](O)(O2)C(=O)C(=O)N2CCCC[C@H]2C(=O)O[C@H]([C@H](C)C[C@@H]2CC[C@@H](O)[C@H](OC)C2)CC(=O)[C@H](C)C=C(C)[C@@H](O)[C@@H](OC)C(=O)[C@H](C)C[C@H](C)/C=C/C=C/C=C1C", "values": [{"measurement": "GI50", "setting": "[7]", "value": "0.1 µM (active)"}, {"measurement": "GI50", "setting": "[8]", "value": "0.1 µM (active)"}]}
{"smiles": "COc1cc2nc(N3CCN(c4cc(C)ccc4C)CC3)nc(N)c2cc1OC", "values": [{"measurement": "EC50", "setting": "[9]", "value": "> 120 µM (not active)"}, {"measurement": "AC50", "setting": "[10]", "value": "7.37 µM (active)"}, {"measurement": "EC50", "setting": "[11]", "value": "> 120 µM (not active)"}, {"measurement": "EC50", "setting": "[12]", "value": "3.35 µM (active)"}, {"measurement": "AC50", "setting": "[13]", "value": "10.2 µM (active)"}, {"measurement": "EC50", "setting": "[14]", "value": "16.7 µM (active)"}, {"measurement": "CC50", "setting": "[5]", "value": "3.41 µM (active)"}, {"measurement": "AC50", "setting": "[15]", "value": "12.7 µM (active)"}, {"measurement": "EC50", "setting": "[16]", "value": "> 120 µM (not active)"}, {"measurement": "AC50", "setting": "[17]", "value": "5.44 µM (active)"}]}
